Results from ChEMBL document CHEMBL1201862, “PubChem BioAssay data set” (2004).
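Interpolation was linear, between the two tested concentrations surrounding the appropriate level; five concentrations were tested over 48 hours in 96-well plates. At the GI50, growth is halved.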 The source made the active and inactive calls. Rule as the data show it: active = GI50 up to about 1.1 µM and inactive = higher.

What was measured:
Experiment in all cases: DTP human tumour cell line panel, 48 h
[1] = system: A498
[2] = system: DLD-1
[3] = system: DMS-273
[4] = system: HCT-116
[5] = system: HCT-15
[6] = system: HOP-92
[7] = system: K562
[8] = system: KM12
[9] = system: M19-MEL
[10] = system: MCF7
[11] = system: MOLT-4
[12] = system: Malme-3M
[13] = system: NCI-H23
[14] = system: NCI/ADR-RES
[15] = system: OVCAR-8
[16] = system: SF-268
[17] = system: SK-OV-3
[18] = system: UACC-257
[19] = system: UACC-62
[20] = system: ACHN

Row | Compound | GI50 [1] | GI50 [2] | GI50 [3] | GI50 [4] | GI50 [5] | GI50 [6] | GI50 [7] | GI50 [8] | GI50 [9] | GI50 [10] | GI50 [11] | GI50 [12] | GI50 [13] | GI50 [14] | GI50 [15] | GI50 [16] | GI50 [17] | GI50 [18] | GI50 [19] | GI50 [20]
1 | COc1ccc(C2COc3cc(OC(C)=O)c(OC(C)=O)cc3C2)cc1 (centres undefined) | 4.54 µM (inactive) | 20.5 µM (inactive) | 17.9 µM (inactive) | 20.4 µM (inactive) | 20.3 µM | 9.08 µM (inactive) | 16.3 µM (inactive) | 11.4 µM (inactive) | 14.2 µM (inactive) | 29.4 µM (inactive) | 5.66 µM (inactive) | 23.2 µM (inactive) | 27.5 µM (inactive) | 36.3 µM (inactive) | 18.8 µM (inactive) | 12.3 µM (inactive) | 40.1 µM (inactive) | 23.6 µM (inactive) | 19 µM (inactive) | –
2 | CCCN1C(=O)/C(=C(/O)C(=O)OCC)C(c2ccc(OC)c(OC)c2)C1=O (centres undefined) | > 100 µM (inactive) | > 100 µM (inactive) | > 100 µM (inactive) | > 100 µM (inactive) | > 100 µM | > 100 µM (inactive) | > 100 µM (inactive) | > 100 µM (inactive) | > 100 µM (inactive) | > 100 µM (inactive) | > 100 µM (inactive) | > 100 µM (inactive) | > 100 µM (inactive) | > 100 µM (inactive) | > 100 µM (inactive) | > 100 µM (inactive) | > 100 µM (inactive) | > 100 µM (inactive) | > 100 µM (inactive) | –
3 | CCN(CC)CCCC(C)Nc1c2ccc(Cl)cc2nc2cc(Cl)ccc12 (centres undefined) | 8.67 µM (inactive) | 2.94 µM (inactive) | 3.32 µM (inactive) | 2.27 µM (inactive) | 3.04 µM | 2.77 µM (inactive) | 2.21 µM (inactive) | 3.56 µM (inactive) | 4.85 µM (inactive) | 3.13 µM (inactive) | 1.98 µM (inactive) | 12.2 µM (inactive) | 6.62 µM (inactive) | 3.44 µM (inactive) | 4.55 µM (inactive) | 4.9 µM (inactive) | 5.6 µM (inactive) | 4.6 µM (inactive) | 6.89 µM (inactive) | –
4 | CCCCN(C)/N=N/c1[nH]cnc1C(N)=O | > 71.1 µM (inactive) | > 100 µM (inactive) | 58.7 µM (inactive) | > 100 µM (inactive) | > 100 µM | 47.6 µM (inactive) | > 80.7 µM (inactive) | > 100 µM (inactive) | > 100 µM (inactive) | > 100 µM (inactive) | 41.2 µM (inactive) | > 86.9 µM (inactive) | > 100 µM (inactive) | > 100 µM (inactive) | 78.2 µM (inactive) | > 100 µM (inactive) | 35.8 µM (inactive) | > 73.5 µM (inactive) | 57.1 µM (inactive) | –
5 | CC1=NCCc2cc3[nH]c4ccccc4c3cc21 | 11.5 µM (inactive) | 19.2 µM (inactive) | 13.6 µM (inactive) | 12.8 µM (inactive) | 21.7 µM | 0.897 µM (active) | 9.79 µM (inactive) | 20.8 µM (inactive) | 14.9 µM (inactive) | 15.1 µM (inactive) | 11.5 µM (inactive) | 10.7 µM (inactive) | 33 µM (inactive) | 23.7 µM (inactive) | 24.6 µM (inactive) | 22.1 µM (inactive) | 17.8 µM (inactive) | 10.3 µM (inactive) | 14.3 µM (inactive) | –
6 | C/C=C1\C[C@@H]2C(OC)Nc3cc(O)c(OC)cc3C(=O)N2C1 (some centres undefined) | 0.0273 µM (active) | 0.00319 µM (active) | 0.00129 µM (active) | < 0.01 µM (active) | < 0.01 µM | < 0.01 µM (active) | < 0.01 µM (active) | 0.0173 µM (active) | 0.00612 µM (active) | < 0.01 µM (active) | < 0.01 µM (active) | < 0.01 µM (active) | – | < 0.01 µM (active) | < 0.01 µM (active) | < 0.01 µM (active) | < 0.01 µM (active) | < 0.01 µM (active) | < 0.01 µM (active) | 0.00179 µM (active)
